Reference: US10774039B2, “Cyclopropene amino acids and methods” (United Kingdom Research and Innovation, priority 2014, dated 2020)

Key:
PylRS/tRNACUA pair = assay: Site-specific incorporation into sfGFP150TAG expressed in E. coli; format: cell-based, Methanosarcina barkeri
Experimental: FIG. 2A: The PylRS/RNACUA pair directs efficient, site-specific incorporation of 3 into sfGFP bearing an amber stop codon at position 150.
Expression and purification of sfGFP-3 from E. coli Electrocompetent E. coli DH10B cells were co-transformed with pBK-MbPylRS and psfGFP150TAG PyIT^14, 26. Transformed cells were recovered in S.O.B. (1 mL, supplemented with 0.2% glucose) for 1 h at 37° C. and used to inoculate LB containing 50 μg/mL kanamycin and 25 μg/mL tetracycline (LB-KT). The cells were incubated with shaking overnight at 37° C., 250 r.p.m. 1 mL of overnight culture was used to inoculate 100 mL of LB-KT½, the day culture was then incubated (37° C., 250 r.p.m). At O.D.600˜0.3, the culture was divided equally and supplemented with either 3 (1 mM) or H2O (500 μL) and incubated further (37° C., 250 r.p.m). At O.D.600˜0.6 protein expression was induced by the addition of arabinose (0.2%), after 4 h, the cells were harvested by centrifugation (4000 r.p.m, 20 min) and the pellet frozen until further use.
The frozen bacterial pellet was thawed on ice and resuspended in 2.5 mL lysis buffer (Bugbuster®, Novagen®, 50 μg/mL DNAse 1, Roche inhibitor cocktail and 20 mM imidazole). Cells were incubated (4° C., 30 minutes) then clarified by centrifugation (16000 g, 4° C., 30 minutes). The clarified lysates were transferred to fresh tubes and 100 μL Ni-NTA slurry added. The mixtures was incubated with agitation (4° C., 1 h) and then collected by centrifugation (1000 g, 4° C., 5 min). The beads were resuspended three times in 500 μL wash buffer (10 mM Tris-HCL, 40 mM imidazole, 200 mM NaCl, pH 8) and collected by centrifugation (1000 g, 4° C., 5 min). Finally, the beads were resuspended in 100 μL, elution buffer (10 mM Tris-HCL, 300 mM imidazole, 200 mM NaCl, pH 8), pelleted by centrifugation (1000 g, 4° C., 5 min) and the supernatant collected into fresh tubes. The elution was repeated three times with 100 μL of elution buffer. The purified proteins were analysed by 4-12% SDS-PAGE and LC-MS.

DH10B cells = assay: E. coli growth (OD600) in presence of 3 during SORT-M; format: cell-based
Experimental: Chemically competent DH10B cells were transformed with two plasmids: pBKwtPylRS necessary for expression of PylRS, and pBAD_wtT4L_MbPylTXXX plasmids that is required for expression of PyltRNAXXX and expresses lysozyme under arabinose control. […] 200 μL aliquots of these cultures were transferred into a 96-well plate and OD600 measured using a Microplate reader, Infinite 200 Pro (TECAN). OD600 was measured for each sample every 10 min with linear 1 mm shaking between the measurements.

CC1=CC1COC(=O)NCCCC[C@H](N)C(=O)O (stereo partly drawn) [amino acid 3, N^ε-[((2-methylcycloprop-2-en-1-yl)methoxy)carbonyl]-L-lysine]
yield of protein (PylRS/tRNACUA pair; SfGFP gene with amber codon at position 150, E. coli, PylRS/tRNACUA pair): 8 mg per litre of culture
efficiency of site-specific incorporation into sfGFP (PylRS/tRNACUA pair; amber stop codon at position 150, E. coli, compared with 1): more efficient than 1
toxicity to cells of incorporation via SORT-M (DH10B cells; 0.1 mM): Not Toxic
effect on cell growth (DH10B cells; 0.1 or 0.5 mM): little or no effect on cell growth
